Reference: patent US20070293467A1, “Demethyl-Cantharidin Platinum Complex Isomers and Their Use” (priority 2004, published 2007)
Like-named read-outs stand apart in the source and are kept apart here.

Experiments:
Format in all cases: cell-based
Huh-7 = test: MTT tetrazolium microculture growth inhibition, Huh-7; conditions: for IC50: Huh-7, 72 h exposure, MTT, read-out: Average growth-inhibitory activity (IC50); for in vitro antitumor activity against Huh-7 cell: in words, from Table 5
Experimental: (§1) DMC platinum complexes, together with controls cisplatin, carboplatin, and oxaliplatin were screened for an in vitro antitumor activity against various tumorous cell lines, using a tetrazolium microculture assay.
(§2) Drugs: Drugs to be tested were dissolved in a complete medium at twice the highest concentration to be used, followed by filtration (0.22 μm) sterilization. A series of log dilutions were made from each drug solution using complete medium. All drug solutions were prepared 10 minutes before addition to cells.
(§3) In vitro drug exposure: For each drug to be tested, trypsinized cells were adjusted to a concentration of 2×10^5 cells/ml in a complete medium, and 0.1 ml of the cell suspension was added to each of 24 wells in a 96-well microculture plate. The plate was then incubated at a standard condition for 24 hours in order to allow the cells to be adhered to the bottom of the well and restart exponential growth. To each well of the control culture and drug/concentration combinations, 0.1 ml of the complete medium and drug solution were added, respectively. Each drug/concentration combination consisting of four replicates while the control culture consisting of 12 replicates. The twelve replicates of a blank control containing 0.2 ml of the complete medium were set aside to account for the background. The cultures were incubated for additional 72 hours. All tests were repeated at least 3 times on different occasions.
(§4) MTT assay: The MTT (tetrazolium) assay was used to determine the growth-inhibitory effects of different drugs. A 5 mg/ml solution of MTT (3-(4,5-dimethylthiazol-2-yl)-2,5-diphenyltetrazolium bromide) was prepared in phosphate buffer saline (pH 7.4), sterilized by filtration (0.22 μm) and stored at −20° C. To each well, 0.02 ml of an MTT solution was added, and the plate was incubated for 4 hours under standard conditions. The medium in each well was then removed, and 0.1 ml of DMSO (dimethylsulfoxide) was added to each well to solubilize the colored dye produced from the metabolic reduction of MTT. The amount of reduced MTT was measured by spectrophotometric means (570 nm).
(§5) Data analysis: A mean value of OD was determined for all of the 12 control wells. For each concentration of each drug, A mean OD of the 4 wells was determined. All the mean ODs were subtracted from the blank to account for the background. The “Percent of Control” values were determined and plotted.

SK-Hep = test: MTT tetrazolium microculture growth inhibition, SK-Hep; conditions: for IC50: SK-Hep, 72 h exposure, MTT, read-out: Average growth-inhibitory activity (IC50); for in vitro antitumor activity against SK-Hep: in words, from Table 5
Experimental: as §1, §2, §3, §4, §5

[1] = test system: liver cancer cell line PLC/5; test: MTT tetrazolium microculture growth inhibition, PLC/5; conditions: for IC50: PLC/5, 72 h exposure, MTT, read-out: Average growth-inhibitory activity (IC50); for activity against liver cancer cell line PLC/5: in words, from Table 5
Experimental: as §1, §2, §3, §4, §5

HT-29 = test: MTT tetrazolium microculture growth inhibition, HT-29; conditions: 72 h exposure, read-out: Average growth-inhibitory activity (IC50)
Experimental: as §1, §2, §3, §4, §5

L1210 = test: MTT tetrazolium microculture growth inhibition, L1210; conditions: 72 h exposure, read-out: Average growth-inhibitory activity (IC50)
Experimental: as §1, §2, §3, §4, §5

Huh-7 resistance = test: MTT tetrazolium microculture growth inhibition, Huh-7 resistance; conditions: for resistance of Huh-7 to the drug: Huh-7 resistance vs Huh-7, from IC50 of Table 5; for IC50: Huh-7 resistance, 72 h exposure, MTT, read-out: Average growth-inhibitory activity (IC50); for cross-resistance of Huh-7: Huh-7 resistance vs Huh-7, within experimental errors
Experimental: as §1, §2, §3, §4, §5

HCT-116 = test: MTT tetrazolium microculture growth inhibition, HCT-116; conditions: 72 h exposure, read-out: Average growth-inhibitory activity (IC50)
Experimental: as §1, §2, §3, §4, §5

L1210 resistance = test: MTT tetrazolium microculture growth inhibition, L1210 resistance; conditions: for resistance / cross-resistance of L1210: L1210 resistance vs L1210; for IC50: L1210 resistance, 72 h exposure, MTT, read-out: Average growth-inhibitory activity (IC50)
Experimental: as §1, §2, §3, §4, §5

SK-Hep resistance = test: MTT tetrazolium microculture growth inhibition, SK-Hep resistance; conditions: for resistance of SK-Hep to the drug: SK-Hep resistance vs SK-Hep, from IC50 of Table 5; for IC50: SK-Hep resistance, 72 h exposure, MTT, read-out: Average growth-inhibitory activity (IC50)
Experimental: as §1, §2, §3, §4, §5

[2] = test system: colorectal cancer cell line Colo320; test: MTT tetrazolium microculture growth inhibition, Colo320; conditions: for IC50: Colo320, 72 h exposure, MTT, read-out: Average growth-inhibitory activity (IC50); for activity against colorectal cancer cell line Colo320: in words, from Table 5
Experimental: as §1, §2, §3, §4, §5

| Structure (SMILES) | IC50 (Huh-7) [µM] | IC50 (SK-Hep) [µM] | IC50 [1] [µM] | IC50 (HT-29) [µM] | IC50 (L1210) [µM] | IC50 (Huh-7 resistance) [µM] | IC50 (HCT-116) [µM] | resistance / cross-resistance of L1210 (L1210 resistance) | IC50 (L1210 resistance) [µM] | IC50 (SK-Hep resistance) [µM] | IC50 [2] [µM] | in vitro antitumor activity against Huh-7 cell (Huh-7) | in vitro antitumor activity against SK-Hep (SK-Hep) | activity against liver cancer cell line PLC/5 [1] | activity against colorectal cancer cell line Colo320 [2] | other results |
| --- | --- | --- | --- | --- | --- | --- | --- | --- | --- | --- | --- | --- | --- | --- | --- | --- |
| N.N.[Cl][Pt][Cl] [Cisplatin, reference compound] | 11.7 ± 1.21 | 13.5 ± 1.84 | 6.92 ± 1.46 | 12.1 ± 2.25 | 0.82 ± 0.14 | 25.6 ± 3.5 | 4.14 ± 0.8 | high resistance | 14 ± 1.49 | 51.8 ± 7.01 | 2.54 ± 0.48 | – | – | – | – | resistance of Huh-7 to the drug (Huh-7 resistance): 1.5 fold; resistance of SK-Hep to the drug (SK-Hep resistance): 4 fold |
| O=C1[O][Pt]2([NH][C@H]3CCCC[C@H]3[NH]2)[O]C(=O)C2C3CCC(O3)C12 (stereo partly drawn) [Cis-DMC platinum complex] | 19 ± 1.46 | 19.4 ± 2.23 | 17.1 ± 1.18 | – | – | 17.1 ± 0.77 | 12.6 ± 1.67 | – | – | 22.7 ± 1.11 | 5.98 ± 0.97 | – | – | – | – | cross-resistance of Huh-7 (Huh-7 resistance): no cross-resistance |
| O=C1[O][Pt]2([NH][C@@H]3CCCC[C@H]3[NH]2)[O]C(=O)C2C3CCC(O3)C12 (mixture of isomers) [Trans-DMC platinum complex, Trans-Racemic DMC Platinum Complex] | 4.47 ± 0.79 | 4.27 ± 1.03 | 4.64 ± 1.01 | 2.09 ± 0.69 | 0.14 ± 0.06 | 5.99 ± 0.52 | 0.81 ± 0.29 | no cross-resistance | 0.17 ± 0.05 | 5.01 ± 0.68 | 2.54 ± 0.95 | effective in vitro antitumor activities | effective in vitro antitumor activities | effective activities | more effective | cross-resistance of Huh-7 (Huh-7 resistance): no cross-resistance |
| O=C1OC(=O)C2C3CCC(O3)C12 (stereo not shown) [DMC, Demethylcantharidin, reference compound] | – | – | – | – | – | – | – | – | – | – | – | – | – | – | – | IC50 (Huh-7; Homo sapiens): 32.9 ± 3.68 µM; IC50 (SK-Hep; SKHep): 19 ± 2.01 µM; IC50 ([1]; PLC5): 25.3 ± 1.98 µM; IC50 (HT-29; Homo sapiens): 32.7 ± 2.57 µM; IC50 (L1210; Mus musculus): 31.2 ± 1.79 µM; IC50 (Huh-7 resistance; Homo sapiens): 26.9 ± 3.03 µM; IC50 (HCT-116; Homo sapiens): 23.2 ± 2.06 µM; IC50 (L1210 resistance; Mus musculus): 45.5 ± 3.69 µM; IC50 (SK-Hep resistance; SKHep): 25.5 ± 1.69 µM; IC50 ([2]; Homo sapiens, COLO 320): 23.9 ± 1.42 µM |
| O=C1[O][Pt]2([NH][C@@H]3CCCC[C@H]3[NH]2)[O]C1=O [Oxaliplatin, reference compound] | 8.97 ± 4.56 | 9.09 ± 4.24 | 6.48 ± 3.19 | – | – | – | – | – | – | – | 1 ± 0.31 | – | – | – | – | – |
| O=C1[O][Pt]2([NH][C@H]3CCCC[C@@H]3[NH]2)[O]C(=O)C2C3CCC(O3)C12 (stereo partly drawn) [Trans-S,S(+)-DMC platinum complex, Trans-S,S-(+)-DMC platinum complex] | 8.46 ± 1.51 | 6.15 ± 1 | 6.26 ± 1.87 | 3.07 ± 0.73 | 0.11 ± 0.05 | 16.2 ± 2.6 | 2.04 ± 0.41 | no cross-resistance | 0.12 ± 0.06 | 8.09 ± 0.89 | 4.96 ± 1.32 | effective in vitro antitumor activities | effective in vitro antitumor activities | effective activities | more effective | – |
| N.N.O=C([O-])C1(C(=O)[O-])CCC1.[Pt+2] [Carboplatin, reference compound] | 117 ± 9.82 | 134 ± 10.3 | 80.2 ± 15.8 | 134 ± 15 | 12.8 ± 2.14 | 176 ± 54 | 69.4 ± 14.7 | high resistance | 126 ± 17.2 | 358 ± 28 | 41.7 ± 5.44 | – | – | – | – | resistance of Huh-7 to the drug (Huh-7 resistance): 1.5 fold; resistance of SK-Hep to the drug (SK-Hep resistance): about 2.7 fold |
| O=C1[O][Pt]2([NH][C@@H]3CCCC[C@H]3[NH]2)[O]C(=O)C2C3CCC(O3)C12 (stereo partly drawn) [Trans-R,R(−)-DMC platinum complex, Trans-R,R-(−)-DMC platinum complex] | 3.65 ± 1.1 | 6.63 ± 2.21 | 3.23 ± 1.13 | 0.92 ± 0.57 | 0.76 ± 0.09 | 26.9 ± 6.14 | 0.45 ± 0.27 | no cross-resistance | 0.99 ± 0.1 | 4.7 ± 0.95 | 2.45 ± 0.83 | effective in vitro antitumor activities | effective in vitro antitumor activities | effective activities | more effective | – |
